Source: US5750578A, “Use of betulin and analogs thereof to treat herpesvirus infection” (priority 1997, dated 1998)
“Also recorded” adds a separate entry of the source.

Key:
HEp2 cells = test: Cytotoxicity test and drug controls, HEp2 cells; assay type: cell-based, human; parameters: Betulin control (monolayer rating) / Acyclovir control (monolayer rating): key to the marks not given beside the values
HSV-1 [1] = test: Cell protection test, HSV-1 in HEp2 cells; assay type: cell-based, herpes simplex virus type 1 (KOS, patent strain); details: duplicate wells, 72 hours
Procedure: (§1) Two different HSV-1 and HSV-2 strains were used: HSV-1 (KOS), HSV-2 (MS). Also, HSV-1 (patent strain) and HSV-2 (patent strain) were purchased from ATCC and propagated in HEp2 cell monolayers. Virus stocks were prepared by adsorbing 1 ml of virus suspension containing 1 ×10^5 virus particles for one hour in HEp2 cells at 37° C. in 5% carbon dioxide tension. This stock was incubated under similar conditions for 48 hours after adding 15 ml of MEM containing the usual supplements.
(§2) Infected cells were harvested and disrupted through three cycles of freezing and thawing. The contents in the flasks were pooled, and the supernatant virus particles were collected by centrifugation at 3000 rpm for 5 minutes. The virus suspension dispensed in 2.5 ml aliquot each and […] using both microtitration and plaque counting methods. HSV-1 and HSV-2 containing 5×10^4 PFU/ml and 5.25×10^4 PFU/ml respectively were stored at -80° C. until needed.
(§3) A plus 3 (+++) was given to the wells in which betulin solutions protected the cells without any cytopathic effect as compared to cell and betulin control.

HSV-2 [2] = test: Cell protection test, HSV-2 in SK-N-MC cells; assay type: cell-based, herpes simplex virus type 2 (MS, patent strain); details: duplicate wells, 72 hours
Procedure: as §1, §2, §3

HSV-1 [3] = test: Cell protection test, HSV-1 in SK-N-MC cells; assay type: cell-based, herpes simplex virus type 1 (KOS, patent strain); details: duplicate wells, 72 hours
Procedure: as §1, §2, §3

Vero cells = test: Cytotoxicity test and drug controls, Vero cells; parameters: Betulin control (monolayer rating) / Acyclovir control (monolayer rating): key to the marks not given beside the values
Procedure: Human epithelial type 2 (HEp2), African green monkey kidney (Vero) and human neuroblastoma (SK-N-MC) cells were purchased from American Type Culture Collection (ATCC-Rockville, Md.). These cells were grown at 37° C. in the presence of 5% carbon dioxide tension in minimal essential medium (MEM-Eagle) containing 0.1 mM of nonessential amino acids, and Earl's BSS 90% supplemented with 5% Newborn Calf Serum (NCS) and 1% penicillin/streptomycine sulfate. For SK-N-MC cells, 1.0 mM sodium pyruvate, and 10% NCS was used. The stock cells were prepared and stored at -80° C. in 5% dimethyl sulfoxide (DMSO).
A betulin solution containing 0.5 mg of betulin/1000 ml of water was filtered using a […] pore size filter (Gelman) attached to a 35 ml volume syringe to remove bacteria and other larger organisms. This sterile sample was further diluted to 1:2, 1:4, and 1:8 using distilled, deionized sterile water.
The cytotoxic effect of betulin was observed by using a 24-well microtiter plate. Each well contained 1 ml of MEM with supplements containing 1200 HEp2, Vero or SK-N-MC cells. The plates were incubated for 48 hours at 37° C. in 5% carbon dioxide tension and followed by replacement of the medium with 1.0 ml of MEM with specific supplements.
A 1.0 ml of sterile betulin solution in duplicate at varying two-fold dilution were placed into labeled wells. No betulin solution was placed in the control wells containing a monolayer of cells. These microtiter plates were incubated at 37° C. and 5% carbon dioxide tension for 48 hours and rated as follows.
Similarly, a plus 2 (++) for 75% monolayer, a plus one (+) for 50% monolayer, and a plus minus (±) for 25% monolayer development. A minus rating means that most of the cells are abnormal, whereas a double minus (--) rating was given to wells containing all abnormal cells due to cytotoxic effect of betulin solution. Noncytotoxic dilutions and the highest dilution of betulin showing cytotoxicity, if any, were used in the protection tests. […]

SK-N-MC cells = test: Cytotoxicity test and drug controls, SK-N-MC cells; assay type: cell-based, human; parameters: Betulin control (monolayer rating) / Acyclovir control (monolayer rating): key to the marks not given beside the values
HSV-2 [4] = test: Cell protection test, HSV-2 in Vero cells; assay type: cell-based, herpes simplex virus type 2 (MS, patent strain); details: acyclovir 25 mg; duplicate wells; 72 hours
Procedure: as §1, §2, §3

HSV-2 [5] = test: Cell protection test, HSV-2 in HEp2 cells; assay type: cell-based, herpes simplex virus type 2 (MS, patent strain); details: duplicate wells, 72 hours
Procedure: as §1, §2, §3

HSV-1 [6] = test: Cell protection test, HSV-1 in Vero cells; assay type: cell-based, herpes simplex virus type 1 (KOS, patent strain); details: duplicate wells, 72 hours
Procedure: as §1, §2, §3

HSV-1 and HSV-2 = test: Cell protection tests, overall, HSV-1 and HSV-2 in three cell lines; assay type: cell-based
Procedure: as §1, §2, §3

[7] = acyclovir 50 mg/l and two-fold serial dilution
[8] = betulin 0.5 mg/l and two-fold dilutions, 48 hours

## Nc1nc2c(ncn2COCCO)c(=O)[nH]1 [Acyclovir, reference compound]
HEp2 cells
  Acyclovir control (monolayer rating): +++
HEp2 cells; [7]
  Cytotoxic effect: no cytotoxic effect was observed
HSV-1 [1]; acyclovir 25 mg [mg/l]
  Effectiveness against HSV-1 in HEp2 cells (acyclovir): ++±
HSV-2 [2]; acyclovir 25 mg
  Effectiveness against HSV-2 in SK-N-MC cells (acyclovir): ++±
HSV-1 [3]; acyclovir 25 mg
  Effectiveness against HSV-1 in SK-N-MC cells (acyclovir): ++±
Vero cells
  Acyclovir control (monolayer rating): +++
SK-N-MC cells
  Acyclovir control (monolayer rating): +++
SK-N-MC cells; [7]
  Cytotoxic effect: no cytotoxic effect was observed
HSV-2 [4]
  Effectiveness against HSV-2 in vero cells (acyclovir): ++±
HSV-2 [5]; acyclovir 25 mg
  Effectiveness against HSV-2 in HEp2 cells (acyclovir): ++±
HSV-1 [6]; acyclovir 25 mg
  Effectiveness against HSV-1 in vero cells (acyclovir): ++±

## C=C(C)[C@@H]1CC[C@]2(CO)CC[C@]3(C)[C@H](CC[C@@H]4[C@@]5(C)CC[C@H](O)C(C)(C)[C@@H]5CC[C@]43C)[C@@H]12 [Betulin, lup-20(29)-ene-3β, 28-diol]
HEp2 cells; [8]
  Cytotoxic effect: not toxic; also recorded: did not show any cytotoxic effect
HEp2 cells; control wells, highest concentration of betulin, Tables 1 and 2
  Betulin control (monolayer rating): +++
HSV-1 and HSV-2; 0.5 mg/l betulin vs 25 mg/l ACV, three cell types
  Effectiveness in protecting indicator cell monolayers compared to acyclovir: as effective as 25 mg/l of ACV
HSV-1 and HSV-2; after 72 hours
  Spread of virus from the infected cells: did not spread from the infected cells
HSV-1 and HSV-2; three different cell lines
  Effectiveness against HSV-2 compared to HSV-1: slightly more effective in protecting all three different cell lines against HSV-2 strains than HSV-1 strains; also recorded: more effective against HSV-2 compared to HSV-1
HSV-1 [1]; betulin 0.5 mg [mg/l]
  Effectiveness of betulin against HSV-1 in HEp2 cells: ++±
HSV-2 [2]; betulin 0.5 mg
  Effectiveness of betulin against HSV-2 in SK-N-MC cells: ++±
HSV-1 [3]; betulin 0.5 mg
  Effectiveness of betulin against HSV-1 in SK-N-MC cells: ++±
Vero cells; [8]
  Cytotoxic effect: not toxic; also recorded: did not show any cytotoxic effect
Vero cells; control wells, highest concentration of betulin, Tables 3 and 4
  Betulin control (monolayer rating): +++
SK-N-MC cells; [8]
  Cytotoxic effect: not toxic; also recorded: did not show any cytotoxic effect
SK-N-MC cells; control wells, highest concentration of betulin, Tables 5 and 6
  Betulin control (monolayer rating): +++
HSV-2 [5]; betulin 0.25 mg
  Effectiveness of betulin against HSV-2 in HEp2 cells: ++±
HSV-1 [6]; betulin 0.5 mg
  Effectiveness of betulin against HSV-1 in vero cells: ++±
